According to patent US8735415B2, “Acid addition salts of (3,5-Bis trifluoromethyl)-N-[4-methyl-3-(4-pyridin-3yl-pyrimidin-2ylamino)-phenyl]-benzamide” (Natco Pharma Limited, priority 2004, dated 2014):
Converted amounts (≈) assume the structure as drawn.

How the values were obtained:
[1] = Solubility by the shake flask method; details: for Solubility (mg/ml): Medium: Water
Experimental: General conditions: Room temperature (25° C.), stirring speed: 200 RPM, Analytical method: UV

[2] = Stability under high humidity conditions (water content by Karl-Fischer method); format: physicochemical; details: for Final moisture content - After 48 hours at 25° C. at humidity of 60%: humidity 60%; for Final moisture content - After 48 hours at 25° C. at humidity of 60% / Final moisture content - After 48 hours at 40° C. at humidity of 75% / Initial moisture content (%): Karl-Fischer; for Final moisture content - After 48 hours at 40° C. at humidity of 75%: humidity 75%; for Initial moisture content (%): before storage; for Hygroscopicity (conclusion in words): conclusion from Table 1
[3] = system: Mice; test: Maximum tolerated dose (MTD) for 14 days; format: in vivo; details: for MTD (mg/kg, po): Mice, 14 days
Text: Maximum Tolerated Dose—Non-Toxic Nature

[4] = Bioavailability study in mice; format: in vivo
[5] = system: T315I cell line, chronic myelogenous leukemia (CML) mutant; test: Activity in cell culture, T315I cell proliferation; format: cell-based; details: for IC50: 0.625×10^5 cells/ml, 10 μM to 0.156 μM
[6] = Flow properties, angle of repose; format: physicochemical
[7] = system: K562 cell line, chronic myelogenous leukemia (CML); test: Activity in cell culture, K562 cell proliferation; format: cell-based; details: for IC50: K562, 0.312×10^5 cells/ml, 72 Hrs, 10 μM to 0.156 μM; for Potency in inhibiting cell proliferation compared with Imatinib: K562
[8] = 0.1N HCl, 25 °C, simulated gastric fluid, thermodynamic from solid

Compound	Solubility (mg/ml) ([1]; 25° C., 200 RPM, UV)	Final moisture content - After 48 hours at 25° C. at humidity of 60% [2] [%]	Final moisture content - After 48 hours at 40° C. at humidity of 75% [2] [%]	Initial moisture content (%) [2] [%]	Hygroscopicity (conclusion in words) [2]	MTD (mg/kg, po) [3]	solubility [1, 8] [µg/mL]	Potency in inhibiting cell proliferation compared with Imatinib [5]	Angle of Repose (degrees °) [6] [degrees °]	Potency in inhibiting cell proliferation compared with Imatinib [7]	other results
Cc1ccc(NC(=O)c2cc(C(F)(F)F)cc(C(F)(F)F)c2)cc1Nc1nccc(-c2cccnc2)n1.Cl [(3,5-Bis trifluoromethyl)-N-[4-methyl-3-(4-pyridin-3-yl-pyrimidin-2-ylamino)-phenyl]-benzamide hydrochloride]	Almost no	0.7	0.7	0.6	non-hygroscopic	–	–	–	–	–	solubility ([1]; Medium: 0.1N HCl, 25° C., 200 RPM, UV): 13.4 µg/mL
CS(=O)(=O)O.Cc1ccc(NC(=O)c2cc(C(F)(F)F)cc(C(F)(F)F)c2)cc1Nc1nccc(-c2cccnc2)n1 [(3,5-Bis trifluoromethyl)-N-[4-methyl-3-(4-pyridin-3-yl-pyrimidin-2-ylamino)-phenyl]-benzamide methane sulfonate]	–	0.7	0.7	0.6	non-hygroscopic	–	–	–	–	–	–
Cc1ccc(NC(=O)c2cc(C(F)(F)F)cc(C(F)(F)F)c2)cc1Nc1nccc(-c2cccnc2)n1 [AN-019, (3,5-Bistrifluoromethyl)-N-[4-methyl-3-(4-pyridin-3-yl-pyrimidin-2-ylamino)-phenyl]-benzamide]	Almost no	–	–	–	–	500.0 mg/kg, po	1.3 (≈ 2.51 µM)	more potent than Imatinib	41.57	more potent than Imatinib	AUC [4]: 611.46 ng·h/mL; Cmax ([4]; mouse, in vivo): 93.7 ng/mL; Tmax ([4]; mouse, in vivo): 6 h; IC50 ([5]; 72 h): 99.3 nM; IC50 ([7]; Homo sapiens, K562, 72 h): 206 nM
Cc1ccc(NC(=O)c2cc(C(F)(F)F)cc(C(F)(F)F)c2)cc1Nc1nccc(-c2cccnc2)n1.Cc1ccc(S(=O)(=O)O)cc1 [AN-019T, (3,5-Bis trifluoromethyl)-N-[4-methyl-3-(4-pyridin-3-yl-pyrimidin-2-ylamino)-phenyl]-benzamide 4-toluene sulfonate monohydrate]	–	2.7	2.8	2.7	non-hygroscopic	1000.0 mg/kg, po	40.2	more potent than Imatinib	30.74	more potent than Imatinib	Toxicity compared with the base ([3]; conclusion from Table 3, mice): substantially less toxic than the corresponding base; Solubility compared with the other salts ([1]; conclusion from Table 2): improved solubility properties among other salts investigated; solubility ([1]; water, 25 °C, thermodynamic from solid): 7.8 µg/mL; IC50 ([5]; 72 Hrs, monohydrate): 109 nM; Flow properties compared with the base ([6]; conclusion from Table 4): a lower angle of repose and better flow properties when compared with corresponding base; IC50 ([7]; monohydrate): 265 nM
